A value given as a limit tells only on which side of the number the result lay.

Test [1] relates to human mesangial cells. Kind of test: Intracellular cAMP level in human mesangial cells (AlphaScreen cAMP functional assay). The conditions noted are these: co-treatment with forskolin 1 μM. The test is classed as cell-based. The protocol: (§1) Human mesangial cells were purchased from DS Pharma Biomedical (US). Compound A was obtained from Takeda GmbH, Konstanz, Germany. Forskolin and dimethyl sulfoxide (DMSO) were purchased from Wako Pure Chemical Industries, Ltd (Japan). Recombinant human TGF-β was purchased from R&D systems (USA).
On day 0, human mesangial cells were seeded at a cell density of 2×10^5 cells/well in CSC complete medium (Cell Systems, USA) on type 1 collagen-coated 24-well plate (AGC TECHNO GLASS Co. Ltd., Japan) in an atmosphere of 95% air and 5% CO2 at 37° C. On day 1, the cells were serum starved with CSC medium which is not containing serum and growth factors. On day 2, Compound A at final concentrations of 0.001, 0.01, 0.1, 1 and 10 μM or DMSO (control) was added to the culture medium. […]
For evaluation of the effects of Compound A on intracellular cAMP level, statistical differences between DMSO-treatment and Compound A treatment groups were analyzed with one-tailed Williams' test. For the evaluation of the effects of Compound A on mRNA expression levels, statistical differences between forskolin/TGF-β-treatment and Compound A treatment groups were analyzed with one-tailed Williams' test. To confirm the mRNA induction by TGF-β, mRNA expression levels between untreated and TGF-β-treated group were analyzed by Students t-test. […]
In general terms: Cyclic AMP is a second messenger, typically raised through Gs and lowered through Gi signalling.

The subject of test [2] is connective tissue growth factor (CTGF) mRNA. The test can be described thus: TGF-β-induced mRNA expression of connective tissue growth factor (CTGF) in human mesangial cells. The test is classed as cell-based. The conditions noted are these: 0.001-10 μM with forskolin 1 μM and TGF-β 3 ng/mL, 6 h. The protocol: as §1
On day 0, human mesangial cells were seeded at a cell density of 2×10^5 cells/well in CSC complete medium (Cell Systems, USA) on type 1 collagen-coated 24-well plate (AGC TECHNO GLASS Co. Ltd., Japan) in an atmosphere of 95% air and 5% CO2 at 37° C. On day 1, the cells were serum starved with CMC medium which is not containing serum and growth factors. On day 2, Compound A at final concentrations of 0.001, 0.01, 0.1, 1 and 10 μM or DMSO (control) was added to the culture medium. […] For the measurement of mRNA levels of type 1 collagen α1 chain and fibronectin, total RNA isolated at 24 hours after forskolin/TGF-β stimulation was used. mRNA expression levels were measured by quantitative real-time RT-PCR methods with TaqMan gene expression master mix and ABI PRISM 9700 (Life Technologies, USA) with target mRNA specific primer and probe sets [Human connective tissue growth factor (Hs1026927_g1); Human plasminogen activator inhibitor-1 (Hs00167155_m1); Human type 1 collagenal chain (Hs00164004_m1); Human fibronectin (HS00365052_m1); Humanglyceraldehyde 3-phosphate dehydrogenase (HS2758991_g1)]. […]

For test [3], the system named is uninephrectomized db/db mice. Kind of test: Diabetic nephropathy in uninephrectomized db/db mice, 8 week treatment starting 12 weeks after the uninephrectomy. The class given is in vivo. The following applies: 8 weeks starting 12 weeks after uninephrectomy. The protocol:
The experimental protocol is similar to the experimental protocol described above with the exception that the 8 week treatment with Compound A or irbesartan was started not already at 4 weeks after the uninephrectomy, but only 12 weeks after the uninephrectomy (i.e. when the increase of urinary albumin/creatinine ratio (UACR) is already in a much more advanced stage). Roflumilast was not used as a comparator in this experiment.
Compound A (1, 3 and 10 mg/kg, QD) and irbesartan (50 and 100 mg/kg, QD) were suspended in 0.5% methyl cellulose solution and orally administered to mice for 8 weeks starting 12 weeks after the uninephrectomy.
For evaluation of the effects of Compound A, statistical differences between vehicle- and Compound A treated groups were analyzed with one-tailed Williams' test for GHB, PG and BW and one-tailed Shirley-Williams' test for UACR. For irbesartan, statistical differences between vehicle- and irbesartan treated groups were analyzed with one-tailed Williams' test for UACR, GHb, PG and BW. The P-values less than 0.025 were considered statistically significant in one-tailed Williams' test or one-tailed Shirley-Williams' test.

Regarding `CCOc1cc2c(cc1OC)C(c1ccc(=O)n(C)c1)=N[C@@H]1CC[C@@H](O)C[C@H]21` [Compound A, 5-((2R,4aR,10bR)-9-Ethoxy-2-hydroxy-8-methoxy-1,2,3,4,4a,10b-hexahydro-phenanthridin-6-yl)1-methyl-1H-pyridin-2-one], in test [1] (0.001-10 μM), the “effect on intracellular cAMP accumulation” value is given as “further enhanced intracellular cAMP accumulation in a concentration dependent manner”. The “concentration at which the significant effect on intracellular cAMP accumulation was observed” value in test [1] was at least 0.1 µM. Also, the “effect on TGF-β-induced mRNA expression of CTGF” value in test [2] is recorded as “further suppressed by the treatment with Compound A in a concentration-dependent manner”. In addition, the “effect on urinary albumin/creatinine ratio (UACR)” value in test [3] (1 mg/kg QD oral) is “suppressed the increase of UACR”; in test [3] (3 mg/kg QD oral) it was “reduced the UACR in the 3 mg/kg and 10 mg/kg group below the value at the beginning of the 8 weeks treatment period”; in test [3] (10 mg/kg QD oral), “reduced the UACR in the 3 mg/kg and 10 mg/kg group below the value at the beginning of the 8 weeks treatment period”. Moreover, the “effect on glucose plasma levels (PG)” value was “statistical significant effect” in test [3] (10 mg/kg QD oral); “reduced GHb and PG in a dose-dependant manner” in test [3] (1, 3 and 10 mg/kg QD oral). Moreover, the “effect on glycosylated hemoglobin (GHb)” value in test [3] (10 mg/kg QD oral) is “statistical significant effect”; in test [3] (1, 3 and 10 mg/kg QD oral), “reduced GHb and PG in a dose-dependant manner”. In test [3] (1, 3 and 10 mg/kg QD oral), the “effect on body weight (BW)” value is on record as “Neither Compound A nor Irbesartan affected the body weight”.

The values are drawn from patent US20200179369A1, “TREATMENT OF DIABETIC NEPHROPATHY” (TAKEDA GMBH, priority 2015, published 2020).
